Experimental data published in PubChem BioAssay AID248 (DTP/NCI, 2004).
Several values for one entry are separate records, joined by “and”; a condition that tells them apart may be missing. Equal entries are not always repeated. Inconclusive results and toxic doses are left out. Cut-off read from the data, not from the text of the source: active = T/C of 150% or more; inactive = T/C below 125%.

Test system: L1210 leukemia ip in BDF1 mice, survival T/C
Assay: NCI In Vivo Anticancer Drug Screen. Data for tumor model L1210 Leukemia (intraperitoneal) in B6D2F1 (BDF1) mice
Conditions: endpoint: mean survival time, higher = longer survival
Method in brief: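 Ratio derived from survival: compound-dosed mice over vehicle-dosed mice, all bearing a transplantable tumor.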

[1] = dose: 100.0 mg/kg/injection, schedule: Q04DX003 (ip), vehicle: saline with Tween-80
[2] = dose: 200.0 mg/kg/injection, schedule: Q04DX003 (ip), vehicle: saline with Tween-80
[3] = dose: 400.0 mg/kg/injection, schedule: Q04DX003 (ip), vehicle: saline with Tween-80
[4] = dose: 100.0 mg/kg/injection, schedule: Q01DX009 (ip), vehicle: Klucel (hydroxypropylcellulose) (HPC)
[5] = dose: 100.0 mg/kg/injection, schedule: Q04DX003 (ip), vehicle: Klucel (hydroxypropylcellulose) (HPC)
[6] = dose: 200.0 mg/kg/injection, schedule: Q01DX009 (ip), vehicle: Klucel (hydroxypropylcellulose) (HPC)
[7] = dose: 200.0 mg/kg/injection, schedule: Q04DX003 (ip), vehicle: Klucel (hydroxypropylcellulose) (HPC)
[8] = dose: 400.0 mg/kg/injection, schedule: Q04DX003 (ip), vehicle: Klucel (hydroxypropylcellulose) (HPC)
[9] = dose: 100.0 mg/kg/injection, schedule: Q04DX003 (ip), vehicle: saline

Measured: T/C

O=C(/C=C/c1ccccc1)c1ccccn1
inactive: [1] 100 % of control | [2] 104 % of control | [3] 100 % of control

CCN(CC)C(=O)CS(=O)(=O)c1ccc(N)cc1
inactive: [1] 102 % of control | [2] 97 % of control | [3] 100 % of control

COC(=O)c1ccc(=O)c2nc3/c(=C/O)c(O)cc(=O)c3[nH]c12
inactive: dose: 23.0 micrograms/kg/injection, schedule: Q01DX001 (ip), vehicle: acetone 90 % of control | dose: 23.0 micrograms/kg/injection, schedule: Q01DX009 (ip), vehicle: saline 100 % of control | dose: 23.0 micrograms/kg/injection, schedule: Q04DX003 (ip), vehicle: saline 110 % of control | dose: 47.0 micrograms/kg/injection, schedule: Q01DX001 (ip), vehicle: acetone 93 % of control | dose: 47.0 micrograms/kg/injection, schedule: Q01DX009 (ip), vehicle: saline 113 % of control | dose: 47.0 micrograms/kg/injection, schedule: Q04DX003 (ip), vehicle: saline 97 % of control | dose: 95.0 micrograms/kg/injection, schedule: Q01DX001 (ip), vehicle: acetone 92 % of control | dose: 95.0 micrograms/kg/injection, schedule: Q04DX003 (ip), vehicle: saline 101 % of control

CC(C)C(C#N)(CCCCN1CCCCC1)c1cccc2ccccc12 (stereo not given)
inactive: [1] 97 % of control | [2] 93 % of control

NC(CSCc1ccccc1)C(=O)OCc1ccccc1 (stereo not given)
inactive: [4] 98 % of control | [5] 100 % of control | [6] 92 % of control | [7] 89 % of control | dose: 400.0 mg/kg/injection, schedule: Q01DX009 (ip), vehicle: Klucel (hydroxypropylcellulose) (HPC) 95 % of control | [8] 96 % of control

O=c1[nH]c2ccc(F)cc2c(=O)o1
inactive: dose: 75.0 mg/kg/injection, schedule: Q01DX009 (ip), vehicle: saline 107 % of control | dose: 150.0 mg/kg/injection, schedule: Q01DX009 (ip), vehicle: saline 93 % of control | dose: 300.0 mg/kg/injection, schedule: Q01DX009 (ip), vehicle: saline 94 % of control

Cc1cc(=O)oc2cc(OCc3ccccc3)cc(O)c12
inactive: dose: 75.0 mg/kg/injection, schedule: Q01DX001 (ip), vehicle: other 103 % of control | dose: 150.0 mg/kg/injection, schedule: Q01DX001 (ip), vehicle: other 108 % of control | dose: 300.0 mg/kg/injection, schedule: Q01DX001 (ip), vehicle: other 108 % of control

Cc1ccc(OC/C=C/CS(=O)(=O)c2ccc(Cl)cc2)cc1
inactive: dose: 50.0 mg/kg/injection, schedule: Q01DX009 (ip), vehicle: Klucel (hydroxypropylcellulose) (HPC) 98 % of control | dose: 75.0 mg/kg/injection, schedule: Q01DX001 (ip), vehicle: Klucel (hydroxypropylcellulose) (HPC) 96 % of control | [4] 95 % of control | dose: 150.0 mg/kg/injection, schedule: Q01DX001 (ip), vehicle: Klucel (hydroxypropylcellulose) (HPC) 96 % of control | [6] 98 % of control | dose: 300.0 mg/kg/injection, schedule: Q01DX001 (ip), vehicle: Klucel (hydroxypropylcellulose) (HPC) 94 % of control

CC1CCS(=O)(=O)CC1.[Cl][Hg][Cl]
inactive: dose: 0.31 mg/kg/injection, schedule: Q01DX009 (ip), vehicle: saline 95 % of control | dose: 0.62 mg/kg/injection, schedule: Q01DX009 (ip), vehicle: saline 86 % of control | dose: 1.25 mg/kg/injection, schedule: Q01DX009 (ip), vehicle: saline 91 % of control

COC(=O)c1n[nH]c(C)c1N=NN1CCC(C(N)=O)CC1
inactive: dose: 9.38 mg/kg/injection, schedule: Q01DX001 (ip), vehicle: other 118 % of control | dose: 18.75 mg/kg/injection, schedule: Q01DX001 (ip), vehicle: other 109 % of control | dose: 37.5 mg/kg/injection, schedule: Q01DX001 (ip), vehicle: other 101 % of control

c1ccc2nc(-c3cc4ccccc4s3)ccc2c1
inactive: dose: 100.0 mg/kg/injection, schedule: Q01DX009 (ip), vehicle: saline sonified 96 % of control | [5] 97 % of control | dose: 200.0 mg/kg/injection, schedule: Q01DX009 (ip), vehicle: saline sonified 100 % of control | [7] 95 % of control | dose: 400.0 mg/kg/injection, schedule: Q01DX009 (ip), vehicle: saline sonified 103 % of control | [8] 101 % of control

O=C(OC1CCC/C=C\CCCC1)c1ccc([N+](=O)[O-])cc1 (stereo not given)
inactive: dose: 100.0 mg/kg/injection, schedule: Q01DX001 (ip), vehicle: saline 93 % of control | dose: 200.0 mg/kg/injection, schedule: Q01DX001 (ip), vehicle: saline 98 % of control | dose: 400.0 mg/kg/injection, schedule: Q01DX001 (ip), vehicle: saline 96 % of control

CC(=O)c1cccc(O)c1
inactive: dose: 100.0 mg/kg/injection, schedule: Q04DX002 (ip), vehicle: saline with Tween-80 98 % of control | dose: 200.0 mg/kg/injection, schedule: Q04DX002 (ip), vehicle: saline with Tween-80 95 % of control | dose: 400.0 mg/kg/injection, schedule: Q04DX002 (ip), vehicle: saline with Tween-80 102 % of control

CCCCOP(=O)(OCCCC)O/C(C)=C(\C)OP(=O)(OCC)OCC
inactive: dose: 25.0 mg/kg/injection, schedule: Q04DX002 (ip), vehicle: saline 97 % of control and 102 % of control | dose: 25.0 mg/kg/injection, schedule: Q04DX003 (ip), vehicle: saline 102 % of control | dose: 50.0 mg/kg/injection, schedule: Q04DX002 (ip), vehicle: saline 95 % of control and 97 % of control | dose: 50.0 mg/kg/injection, schedule: Q04DX003 (ip), vehicle: saline 108 % of control | [9] 108 % of control | dose: 200.0 mg/kg/injection, schedule: Q04DX002 (ip), vehicle: saline 97 % of control

Cc1cc(N(CCCl)CCCl)ccc1C=Nc1ccc(S(N)(=O)=O)cc1
inactive: dose: 50.0 mg/kg/injection, schedule: Q01DX001 (ip), vehicle: carboxymethylcellulose (CMC) 95 % of control | dose: 100.0 mg/kg/injection, schedule: Q01DX001 (ip), vehicle: carboxymethylcellulose (CMC) 104 % of control | dose: 200.0 mg/kg/injection, schedule: Q01DX001 (ip), vehicle: carboxymethylcellulose (CMC) 101 % of control | dose: 400.0 mg/kg/injection, schedule: Q01DX001 (ip), vehicle: carboxymethylcellulose (CMC) 104 % of control

O=[N+]([O-])CCCl
inactive: dose: 2.5 mg/kg/injection, schedule: Q04DX003 (ip), vehicle: Klucel (hydroxypropylcellulose) (HPC) 104 % of control | dose: 5.0 mg/kg/injection, schedule: Q01DX009 (ip), vehicle: saline 105 % of control | dose: 5.0 mg/kg/injection, schedule: Q04DX003 (ip), vehicle: Klucel (hydroxypropylcellulose) (HPC) 103 % of control | dose: 10.0 mg/kg/injection, schedule: Q01DX009 (ip), vehicle: saline 106 % of control | dose: 10.0 mg/kg/injection, schedule: Q04DX003 (ip), vehicle: Klucel (hydroxypropylcellulose) (HPC) 95 % of control | dose: 20.0 mg/kg/injection, schedule: Q01DX009 (ip), vehicle: saline 117 % of control | dose: 20.0 mg/kg/injection, schedule: Q04DX003 (ip), vehicle: Klucel (hydroxypropylcellulose) (HPC) 89 % of control

Nc1csc(N)n1
inactive: dose: 75.0 mg/kg/injection, schedule: Q04DX003 (ip), vehicle: saline 107 % of control | [9] 97 % of control | dose: 150.0 mg/kg/injection, schedule: Q04DX003 (ip), vehicle: saline 105 % of control | dose: 200.0 mg/kg/injection, schedule: Q04DX003 (ip), vehicle: saline 96 % of control | dose: 300.0 mg/kg/injection, schedule: Q04DX003 (ip), vehicle: saline 94 % of control | dose: 400.0 mg/kg/injection, schedule: Q04DX003 (ip), vehicle: saline 103 % of control
